Laboratory results taken from US9364523B2 (priority 2014, dated 2016).
Residues, ends and D or L forms follow the SMILES beside them. *: point of attachment. Cbz = O=C(OCc1ccccc1)*

What was measured:
transfected HEK cells = assay type: cell-based
transfected COS cells = assay type: cell-based

CC(C)C[C@@H](C=O)NC(=O)[C@H](CC(C)C)NC(=O)[C@H](CC(C)C)NC(=O)OCc1ccccc1 [MG132] (Cbz-Leu-Leu-Leu-aldehyde)
MTI-PAA levels in the presence of proteasome inhibitor (transfected HEK cells): increased levels of MTI-PAA | MTI-PAA expression in the presence of proteasome inhibitor (transfected COS cells): enhanced
